Assay results reported in patent publication EP0387830A2, “The anthracycline substances, microorganisms producing the same and a process for preparing the substances” (YAMANOUCHI PHARMACEUTICAL CO. LTD., priority 1989, dated 1990).
In brackets after ≈: the same amount, converted by molar mass.

Key:
P 388 = test: Cytotoxicity on tumor cells in vitro (trypan blue exclusion, cell growth inhibition); assay type: cell-based; details: tartrates dissolved in saline, 1 x 10⁵ cells/mℓ, 37 °C for 3 days, RPMI-1640 + 5 % fetus calf serum + 5 µM 2-hydroxyethyldisulfide; for IC50: Mus musculus, P388, 72 h, read-out: IC₅₀ P388
Procedure: (§1) To each 1 mℓ of L 1210* and P 388** culture medium in a concentration of 1 x 10⁵ cells/mℓ, 4 µℓ of each solution of the tartrates of the anthracycline compounds according to the present invention which was dissolved in saline in different concentrations was added respectively and incubated at 37 °C for 3 days in a CO₂ incubator. Then, numbers of surviving cells were counted by trypan blue exclusion. The cytotoxic activity was determined by calculating the cell growth inhibitory ratio of the numbers of surviving cells to numbers of cells of a control to which no compound was added in the different concentrations and by plotting them on a graph. Note : Medium used: * : RPMI-1640 + 10 % new born calf serum **: RPMI-1640 + 5 % fetus calf serum + 5 µM 2-hydroxyethyldisulfide

[1] = tested on: P388 adriamycin resistant cell; test: as above; assay type: cell-based; details: Mus musculus, P388, 72 h, tartrates dissolved in saline; 37 °C for 3 days; read-out: IC₅₀ P388 adriamycin resistant cell
Procedure: as §1

[2] = Solubility in solvents (physicochemical properties)
L 1210 = test: Cytotoxicity on tumor cells in vitro (trypan blue exclusion, cell growth inhibition); assay type: cell-based; details: tartrates dissolved in saline, 1 x 10⁵ cells/mℓ, 37 °C for 3 days, RPMI-1640 + 10 % new born calf serum
Procedure: as §1

P-388 tumor cells = test: Antitumor activity to P388 on animal (prolongation of life); details: for Median survival days: BDFI/SLC male mice, control 13.0; for T/C: ratio of median survival days to control; for Survival rate (after 22 days): survivors - animals in group

Row | Solubility in solvents ([2]; in hexane) | Solubility in solvents ([2]; in methanol, ethanol, acetone, ethylacetate, benzene, toluene and chloroform) | Solubility in solvents ([2]; in water) | Compound | IC50 (P 388) [µg/mL] | IC50 [1] [µg/mL] | IC50 (L 1210; Mus musculus, L1210, 72 h, read-out: IC₅₀ L1210) [µg/mL] | IC₅₀ L1210 (L 1210) [µg/mL] | IC₅₀ P388 (P 388) [µg/mL] | Median survival days (P-388 tumor cells; 0.50 × 5 mg/kg) [days] | T/C (P-388 tumor cells; 0.50 × 5 mg/kg) [%] | Survival rate (after 22 days) (P-388 tumor cells; 0.50 × 5 mg/kg) | Median survival days (P-388 tumor cells; 1.0 × 5 mg/kg) [days] | T/C (P-388 tumor cells; 1.0 × 5 mg/kg) [%] | Survival rate (after 22 days) (P-388 tumor cells; 1.0 × 5 mg/kg)
1 | insoluble | soluble | difficult to be dissolved | COc1cccc2c1C(=O)c1c(cc3c(c1O)C(OC1OC(C)C(OC)C(O)C1OC)CC(C)(OC(C)=O)C3OC1OC(C)C(N(C)C)C(C)(O)C1O)C2=O (stereo not drawn) [YL-01641P-C₁] | 0.18 | 0.33 (≈ 0.426 µM) | – | – | – | – | – | – | – | – | –
2 | – | – | – | COc1cccc2c1C(=O)c1c(O)c3c(c(O)c1C2=O)C[C@@](O)(C(=O)CO)C[C@@H]3O[C@H]1C[C@H](N)[C@H](O)[C@H](C)O1 [adriamycin] | 0.03 | – | 0.087 | 0.090 | 0.023 | – | – | – | – | – | –
3 | – | – | – | CO[C@@]12[C@H](COC(N)=O)C3=C(C(=O)C(C)=C(N)C3=O)N1C[C@@H]1N[C@@H]12 [mitomycin C] | – | – | – | – | – | 22.0 | 169 | 2 - 8 | > 22.0 | > 169 | 8 - 8
